For this assay, the target named is native CB1 receptors (Rattus norvegicus, UniProt P20272). The assay is described as follows: CB1 receptor rat binding assay ([3H]SR141716A, rat brain membranes). Conditions: rat brain membranes.
Setting [1] is: [3H]SR141716A, read-out: Binding rat pKi (converted).

Molecules are shown by their SMILES. Read-outs that look alike come from different tables or passages of the source.

native CB1 receptors, sequence (P20272 whole entry): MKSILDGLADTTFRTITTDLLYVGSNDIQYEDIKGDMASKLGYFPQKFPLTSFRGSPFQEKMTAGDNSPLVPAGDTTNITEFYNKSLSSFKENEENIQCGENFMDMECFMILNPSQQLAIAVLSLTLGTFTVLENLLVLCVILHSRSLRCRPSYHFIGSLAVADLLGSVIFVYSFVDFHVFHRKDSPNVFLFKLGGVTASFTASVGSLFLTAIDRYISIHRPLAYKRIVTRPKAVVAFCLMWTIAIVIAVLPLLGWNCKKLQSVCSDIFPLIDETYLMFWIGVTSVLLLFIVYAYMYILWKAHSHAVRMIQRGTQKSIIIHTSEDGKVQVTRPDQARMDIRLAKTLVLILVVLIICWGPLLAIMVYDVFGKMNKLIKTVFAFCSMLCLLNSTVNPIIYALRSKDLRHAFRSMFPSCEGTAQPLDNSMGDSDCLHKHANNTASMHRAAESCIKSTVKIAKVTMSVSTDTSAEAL

`O=C(Cc1ccccc1)NNC(=O)c1ccc2c(c1)N=C(c1ccc(Cl)cc1)c1ccccc1S2` [drawing 1451]: the “Binding rat Inh %” value ([3H]SR141716A) came out at 72%. Moreover, the Ki under setting [1] is 0.0501 µM.
The corresponding values for `O=C(NNCC(F)(F)F)c1ccc2c(c1)N=C(c1ccc(Cl)cc1)c1ccccc1S2` [drawing 1488] are 70% and 0.01 µM.
For `CCCC1=Nc2cc(C(=O)NC3CCCC(C)C3C)ccc2Sc2ccccc21` (stereo not shown) [drawing 1284], the Ki under setting [1] was 0.02 µM.
Regarding `O=C(NCc1ccncc1)c1ccc2c(c1)N=C(c1cccc(Br)c1)c1ccccc1S2` [drawing 1511], the “Binding rat Inh %” value ([3H]SR141716A) is on record as 76%. Moreover, the Ki under setting [1] was 0.0794 µM.
Take `O=C(NCc1ccccc1)c1ccc2c(c1)N=C(c1cccc(Cl)c1)c1ccccc1S2` [drawing 1328]: the Ki under setting [1] is 0.00316 µM.
With `CC(C)NC(=O)c1ccc2c(c1)N=C(c1ccc(F)cc1)c1ccccc1S2` [drawing 1429], the “Binding rat Inh %” value ([3H]SR141716A) stood at 80%. Further, the Ki under setting [1] is 0.0501 µM.
As to `CCCCNC(=O)c1ccc2c(c1)N=C(C1CCCCC1)c1ccccc1S2` [drawing 1417], the Ki under setting [1] was 0.00631 µM.
Same read-out and setting: the same measure for `O=C(NCc1ccc(Cl)cc1Cl)c1ccc2c(c1)N=C(c1ccccc1F)c1ccccc1S2` [drawing 1551]: 0.1 µM.
For `O=C(NCCC(F)(F)F)c1ccc2c(c1)N=C(c1ccsc1)c1ccccc1S2` [drawing 1442], the “Binding rat Inh %” value ([3H]SR141716A) worked out at 88%. Besides, the Ki under setting [1] was 0.00794 µM.
The corresponding values for `O=C(NN1CCCCCC1)c1ccc2c(c1)N=C(c1ccc(F)cc1)c1ccccc1S2` [drawing 1433] are 112% and 0.00631 µM.
For `O=C(NCCCC(F)(F)F)c1ccc2c(c1)N=C(c1ccsc1)c1ccccc1S2` [drawing 1233], for the setting “[3H]SR141716A”, the “Binding rat Inh %” value is given as 97%. The Ki under setting [1] was 0.000794 µM.
`Cc1ccc(N2CCN(C(=O)c3ccc4c(c3)N=C(c3ccc(Cl)cc3)c3ccccc3S4)CC2)c(C)c1` [Example 19]: where the note is “3 nM [3H]SR141716A, read-out: Rat Brain pKi (converted)”, the Ki was 0.0501 µM.
For `O=C(NCc1ccccc1)c1ccc2c(c1)N=C(c1ccccc1F)c1ccccc1S2` [drawing 1365], the Ki under setting [1] is 0.0316 µM.
Regarding `O=C(NCCc1cccnc1)c1ccc2c(c1)N=C(c1cccc(F)c1)c1ccccc1S2` [drawing 1333], where the note is “[3H]SR141716A”, the “Binding rat Inh %” value is recorded as 94%. Under setting [1], the Ki is 0.0251 µM.
As to `O=C(NCc1ccc(F)cc1)c1ccc2c(c1)N=C(c1ccc(Cl)cc1)c1ccccc1S2(=O)=O` [drawing 1316], the Ki under setting [1] is 0.0251 µM.
The same measure, in the same setting: the same measure for `O=C(NCCc1cccc(Cl)c1)c1ccc2c(c1)N=C(N1CCCCC1)c1ccccc1S2` [drawing 1222]: 0.0158 µM.
`Cc1cccc(C2=Nc3cc(C(=O)NCCC(F)(F)F)ccc3Sc3ccccc32)n1` [drawing 1308]: the “Binding rat Inh %” value ([3H]SR141716A) is 91%. Moreover, under setting [1], the Ki is 0.02 µM.
Take `CCCC1=Nc2cc(C(=O)NC3CCC(C)CC3)ccc2Sc2ccccc21` (stereo not shown) [drawing 1437]: under setting [1], the Ki was 0.0501 µM.
`CC(C)NC(=O)c1ccc2c(c1)N=C(c1ccc(Cl)cc1F)c1ccccc1S2` [drawing 1363]: under “[3H]SR141716A”, the “Binding rat Inh %” value was found to be 72%. Moreover, the Ki under setting [1] is 0.0316 µM.
As to `O=C(NCc1ccccc1)c1ccc2c(c1)N=C(c1ccc(Cl)cc1)c1ccccc1S2` [drawing 1368], under setting [1], the Ki is 0.00501 µM.
As for `CCCC1=Nc2cc(C(=O)NCCc3ccc(Cl)cc3)ccc2Sc2ccccc21` [drawing 1285], the Ki under setting [1] is 0.02 µM.
`CC(C)CNC(=O)c1ccc2c(c1)N=C(c1ccc(Cl)s1)c1ccc(F)cc1S2` [drawing 1359]: the “Binding rat Inh %” value ([3H]SR141716A) came to 95%. For the same compound, the Ki under setting [1] was 0.00398 µM.
On the same counts, the results for `O=C(NC1CCC(F)(F)CC1)c1ccc2c(c1)N=C(c1ccc(Cl)cc1F)c1ccccc1S2` are 78% and 0.001 µM.
Take `CCCC1=Nc2cc(C(=O)NCc3ccc(F)cc3)ccc2Sc2ccccc21` [drawing 1529]: the Ki under setting [1] is 0.0794 µM.
In the case of `O=C(NCc1cccnc1)c1ccc2c(c1)N=C(c1cccc(F)c1)c1ccccc1S2` [drawing 1221], under “[3H]SR141716A”, the “Binding rat Inh %” value was 84%. In addition, the Ki under setting [1] was 0.0158 µM.
The corresponding values for `Cc1ccc(CNC(=O)c2ccc3c(c2)N=C(c2ccc(Cl)s2)c2ccccc2S3)o1` [drawing 1223] are 106% and 0.000501 µM.
For `O=C(NCc1cccnc1)c1ccc2c(c1)N=C(c1ccc(Br)cc1)c1ccccc1S2` [drawing 1180], the “Binding rat Inh %” value ([3H]SR141716A) is 72%. Also, the Ki under setting [1] is 0.0126 µM.
Turning to `O=C(NCCc1ccccc1)c1ccc2c(c1)N=C(c1ccccc1F)c1ccccc1S2` [drawing 1444], the Ki under setting [1] is 0.0501 µM.
With `O=C(NC1CCCC1)c1ccc2c(c1)N=C(c1ccc(Cl)cc1)c1ccccc1S2` [drawing 1436], the “Binding rat Inh %” value ([3H]SR141716A) is given as 89%. The Ki under setting [1] is 0.0501 µM.
On the same counts, the results for `O=C(NC1CCC(F)(F)CC1)c1ccc2c(c1)N=C(c1cccc(Cl)c1)c1ccccc1S2` [drawing 1242] are 79% and 0.001 µM.
The corresponding values for `Cc1ccsc1C1=Nc2cc(C(=O)NCc3ccco3)ccc2Sc2ccccc21` [drawing 1277] are 85% and 0.02 µM.
For the compound `COc1ccc(C2=Nc3cc(C(=O)NCC(C)C)ccc3Sc3ccccc32)cc1` [drawing 1508], for the setting “[3H]SR141716A”, the “Binding rat Inh %” value was found to be 79%. Under setting [1], the Ki was 0.01 µM.
In the case of `O=C(NCc1ccc(F)cc1)c1ccc2c(c1)N=C(c1ccc(Cl)cc1)c1ccccc1S2` [drawing 1287], the Ki under setting [1] is 0.002 µM.
The same measure, in the same setting: the figure for `O=C(NCCCc1ccccc1)c1ccc2c(c1)N=C(c1cccc(Cl)c1)c1ccccc1S2` [drawing 1327] is 0.00316 µM.
For `O=C(NCCCC(F)(F)F)c1ccc2c(c1)N=C(c1ccccn1)c1ccccc1S2` [drawing 1473], the “Binding rat Inh %” value ([3H]SR141716A) was determined as 92%. Moreover, the Ki under setting [1] is 0.00794 µM.
Turning to `O=C(NCCc1ccccc1)c1ccc2c(c1)N=C(c1ccc(Cl)cc1)c1ccccc1S2` [drawing 1295], the Ki under setting [1] is 0.00251 µM.
Consider `CC(CNC(=O)c1ccc2c(c1)N=C(c1ccccc1F)c1ccccc1S2)c1ccccc1` (stereo not shown) [drawing 1214], for which the Ki under setting [1] is 0.0158 µM.
Still for that read-out and setting: the same measure for `O=C(NCCc1ccccc1)c1ccc2c(c1)N=C(c1cccc(Cl)c1)c1ccccc1S2` [drawing 1322]: 0.00316 µM.
In the case of `CC(C)CNC(=O)c1ccc2c(c1)N=C(c1ccc(F)cc1)c1ccccc1S2` [drawing 1319], the “Binding rat Inh %” value ([3H]SR141716A) turned out to be 87%. The Ki under setting [1] is 0.00316 µM.
For `CC(CNC(=O)c1ccc2c(c1)N=C(c1cccc(Cl)c1)c1cc(F)ccc1S2)c1ccccc1` (stereo not shown) [drawing 1196], under setting [1], the Ki was 0.0126 µM.
With `CCCCNC(=O)c1ccc2c(c1)N=C(N1CCCCC1)c1ccccc1S2` [drawing 1325], the Ki under setting [1] is 0.0251 µM.
Take `O=C(NCc1ccccn1)c1ccc2c(c1)N=C(c1ccc(Cl)cc1)c1ccccc1S2` [drawing 1270]: the “Binding rat Inh %” value ([3H]SR141716A) is on record as 112%. Further, the Ki under setting [1] is 0.02 µM.
With `Cc1ccsc1C1=Nc2cc(C(=O)NCCC(C)C)ccc2Sc2ccccc21` [drawing 1251], the “Binding rat Inh %” value ([3H]SR141716A) is 88%. Further, the Ki under setting [1] is 0.0158 µM.
In the case of `O=C(NCc1cccc(Cl)c1)c1ccc2c(c1)N=C(c1ccc(Cl)cc1)c1ccccc1S2` [drawing 1257], under setting [1], the Ki was 0.00126 µM.
On to `CCCCNC(=O)c1ccc2c(c1)N=C(c1ccc(Cl)cc1)c1ccc(Cl)cc1S2` [drawing 1187], for which, where the note is “[3H]SR141716A”, the “Binding rat Inh %” value is on record as 94%. For the same compound, the Ki under setting [1] was 0.0126 µM.
On the same counts, the results for `Cc1ccsc1C1=Nc2cc(C(=O)NCCC(F)(F)F)ccc2Sc2ccccc21` [drawing 1198] are 103% and 0.0126 µM.
Consider `O=C(NCCc1cccnc1)c1ccc2c(c1)N=C(c1ccc(Cl)c(Cl)c1)c1ccccc1S2` [drawing 1407], for which the “Binding rat Inh %” value ([3H]SR141716A) worked out at 103%. Besides, the Ki under setting [1] is 0.00631 µM.
In the case of `CCCCNC(=O)c1ccc2c(c1)N=C(c1ccc(F)c(F)c1)c1ccccc1S2`, the “Binding rat Inh %” value ([3H]SR141716A) is 102%. Moreover, under setting [1], the Ki is 0.00251 µM.
On the same counts, the results for `O=C(NC1CCCCC1)c1ccc2c(c1)N=C(c1cccc(F)c1)c1ccccc1S2` [drawing 1306] are 84% and 0.00316 µM.
As for `O=C(NCCc1cccc(Cl)c1)c1ccc2c(c1)N=C(c1ccc(Cl)cc1)c1ccccc1S2` [drawing 1283], the Ki under setting [1] is 0.02 µM.
With `Cc1ccsc1C1=Nc2cc(C(=O)NC3CCCCC3)ccc2Sc2ccccc21` [drawing 1531], the “Binding rat Inh %” value ([3H]SR141716A) stood at 72%. In addition, the Ki under setting [1] is 0.01 µM.
The corresponding values for `O=C(NCCc1ccccn1)c1ccc2c(c1)N=C(c1ccc(Cl)cc1)c1ccccc1S2` [drawing 1340] are 60% and 0.0251 µM.
For `O=C(NNC(=O)c1ccc2c(c1)N=C(c1cccc(Br)c1)c1ccccc1S2)c1ccccc1`, under “[3H]SR141716A”, the “Binding rat Inh %” value came to 73%. Besides, the Ki under setting [1] was 0.1 µM.
Take `O=C(NCCc1cccnc1)c1ccc2c(c1)N=C(c1ccc(F)cc1)c1ccccc1S2` [drawing 1203]: the “Binding rat Inh %” value ([3H]SR141716A) turned out to be 96%. For the same compound, the Ki under setting [1] was 0.0126 µM.
Turning to `O=C(NCc1ccccc1Br)c1ccc2c(c1)N=C(C1CCCCC1)c1ccccc1S2` [drawing 1392], under setting [1], the Ki is 0.00501 µM.
For the compound `O=C(NN1CCCCCC1)c1ccc2c(c1)N=C(c1ccccc1F)c1ccccc1S2` [drawing 1342], the “Binding rat Inh %” value ([3H]SR141716A) is on record as 101%. Under setting [1], the Ki was 0.0251 µM.
As to `C[C@@H]1CCC[C@H](C)N1NC(=O)c1ccc2c(c1)N=C(c1ccc(Cl)cc1)c1ccccc1S2` [drawing 1396], the “Binding rat Inh %” value ([3H]SR141716A) amounted to 94%. Moreover, the Ki under setting [1] was 0.0398 µM.
Turning to `CC(C)NC(=O)c1ccc2c(c1)N=C(c1ccc(Cl)s1)c1ccccc1S2` [drawing 1445], the “Binding rat Inh %” value ([3H]SR141716A) came out at 85%. The Ki under setting [1] is 0.0501 µM.
On to `O=C(NCc1ccco1)c1ccc2c(c1)N=C(c1ccc(Cl)cc1)c1ccccc1S2` [drawing 1369], for which the “Binding rat Inh %” value ([3H]SR141716A) was 93%. Moreover, the Ki under setting [1] was 0.00501 µM.
As for `CC(CNC(=O)c1ccc2c(c1)N=C(N1CCCCC1)c1ccccc1S2)c1ccccc1` (stereo not shown) [drawing 1455], the Ki under setting [1] was 0.00794 µM.
Take `O=C(NCCc1ccc(Cl)cc1)c1ccc2c(c1)N=C(c1ccccc1)c1ccccc1S2` [drawing 1440]: the Ki under setting [1] is 0.00794 µM.

These data come from patent US20080090805A1, “CB-1 MODULATING COMPOUNDS AND THEIR USE” (ACADIA PHARMACEUTICALS INC., priority 2005, published 2008).
